In patent US20260083126A1, “ANTIMICROBIAL COMPOSITIONS” (AHV International B.V., priority 2022, published 2026):
≈ marks a conversion by molar mass, not a printed value. Like-named read-outs stand apart in the source and are kept apart here.

Key:
[1] = system: Acinetobacter baumanni RUH875; test: MIC assay; type: cell-based; conditions: for MIC90 / MIC50: Acinetobacter
Method: (§1) The exact weighed amount was noted and the volume of solvent to reach a 80 mM dilution calculated. Half of the volume was added first, by adding Tween 80 and let stand for 5 minutes. In a second step, the other half of the volume DMSO was added and resuspended to help the dilution process. The closed tube was inverted 5-10 times and then vortexed very thoroughly for at least 30 seconds. If after this procedure crystals were still visible, the tube was placed in a shaker at 37° C. at 150 rpm for at least 30 minutes (it is indicated if the dissolution period was longer than 2 h). […] In case of Bis(4-Chlorophenyl) thiosulfonate, a lower concentrated stock solution of 2 mM needed to be prepared. For that, the required amount of compound was weighed in and 2% v/v Tween80 and 2% v/v DMSO of the end volume of the stock solution was added to the substance. This mix was heated in a water bath set to 40° C. and occasionally shaken. When the whole amount of the substance reached dissolution, the volume was filled up with growth medium until the end volume. This 2 mM stock solution of Bis(4-Chlorophenyl) thiosulfonate was used in the MIC plate and diluted two-fold, resulting in a testing range of Bis(4-Chlorophenyl) thiosulfonate from 1 mM to 0.002 mM.
(§2) The microorganisms as indicated in Table 4 were used to inoculate a tryptic soy agar (TSA) plate and incubated overnight at 37° C. After incubation 3-5 well-isolated colonies with the same morphology were selected from the TSA plate and resuspended in 2 mL 0.9% saline solution with 3-6 glass beads and vortexed. The optical density at 600 nm (OD600) of the bacterial suspension was measured with a spectrophotometer (Evolution™ 201/220 UV-Visible Spectrophotometer, Thermo Fisher Scientific) and diluted to an OD600 of 0.0008, which resembles 10^6 CFU/mL.
(§3) The MIC assay was performed in a flat-bottom 96-microtiter plate. 50 μL of MHB-II was added into columns 2-11, and 100 μL to column 12 for sterility control. 100 μL of the 8 mM test compound solution (method 1) was added to column 1. A two-fold dilution series of the solution in MHB-II was achieved by resuspending 50 μL of the 8 mM solution from column 1 to column 2. This step was repeated until column 10. The respective concentration of Tween 80 and DMSO in column 1 was 2.5%, which is two-fold diluted throughout the plate. 50 μL of the bacterial suspension was added to column 1-11. The microtiter plates were sealed with adhesive polyethylene film for sealing microplates (Diversified Biotech) and incubated for 24 h at 37° C. After incubation the OD was measured at 600 nm with the Varioskan (Thermo Fisher Scientific). The minimal concentration which causes reduction of final OD600 of the bacterial culture by 50% (MIC50) and by 90% (MIC90) was calculated after normalization of the obtained OD values to the growth control in column 11. This assay was repeated three times in three independent experiments.
(§4) Hereafter, the stock solutions of the compounds were used in three repetitions in a minimal inhibitory concentration (MIC) assay at a 2-fold dilution range with various bacteria from the gram-positive and gram-negative group and a yeast, Candida albicans. The concentrations that show only less than 10% growth after 24 h were considered the MIC90-values, whereas the concentrations that show 50% growth after 24 h when compared to the bacterial growth control were considered the MIC50-values. Escherichia coli and Staphylococcus aureus were used as representatives for a gram-negative bacteria and gram-positive bacteria, respectively. Furthermore, the yeast C. albicans was also tested.
(§5) In an Eppendorf tube between 10-20 mg of the test compound was weighed. Hereafter, the required amount of Tween 80 was added, followed by the amount DMSO. After vigorous shaking, the dissolved and transparent dilutions were diluted 10 times with Mueller Hinton Broth (MHB) for the MIC assay. […]

[2] = system: Klebsiella pneumoniae ATCC 13883; test: MIC assay; type: cell-based; conditions: for MIC50 Klebsiella pneumoniae / MIC90 Klebsiella pneumoniae / MIC50 / MIC90: Example 2a, n = 3, ATCC 13883; for MIC50 / MIC90: Klebsiella pneumoniae, ATCC13883
Method: as §1, §2, §3, §4, §5

[3] = system: Streptococcus Suis Type 2 21-018358-002; test: MIC assay; type: cell-based; conditions: for MIC50 / MIC90: Streptococcus suis
Method: as §1, §2, §3, §4, §5

[4] = system: Streptococcus uberis ATCC 27985; test: MIC assay; type: cell-based; conditions: for MIC50 / MIC90: Streptococcus uberis, ATCC27985
Method: as §1, §2, §3, §4, §5

[5] = system: Staphylococcus epidermis ATCC 35984 biofilm; test: MBIC assay (crystal violet); type: cell-based, Staphylococcus epidermidis; conditions: 48 h at 37° C., absorbance 540 nm
Method: as §1
(§6) Frozen aliquots of Staphylococcus epidermis ATCC 35984 and Pseudomonas aeruginosa ATCC 27853 were used to inoculate a tryptic soy agar (TSA) plate and were incubated overnight at 37° C. After incubation 3-5 well-isolated colonies with the same morphology were selected from the TSA plate and resuspended in 2 ml 0.9% saline solution with 3-6 glass beads and vortexed. The optical density of the bacterial suspension was measured at 600 nm (OD600) with a spectrophotometer (Evolution™ 201/220 UV-Visible Spectrophotometer, Thermo Fisher Scientific) and diluted to an OD600 of 0.2. The MBIC assay was performed in a 96-microtiter plate. […] The solution was resuspended and transferred to a flat-bottom 96-well plate and the absorbance measured at 540 nm with the spectrophotometer. […]

[6] = system: Pseudomonas aeruginosa ATCC 27853 biofilm; test: MBIC assay (crystal violet); type: cell-based; conditions: 48 h at 37° C., absorbance 540 nm
Method: as §1, §6

[7] = Example 2a, n = 3, 21-018358-002
[8] = RUH875, Example 2b, FIG. 1, no MIC90 detected in the tested range, read-out: Average MIC90 A. baumanni (Ab)
[9] = Example 2a, n = 3, RUH875, read-out: MIC90 Acinetobacter baumanni
[10] = Example 2a, n = 3, 21-018358-002, read-out: MIC90 Streptococcus Suis Type 2 (+)
[11] = Example 2a, n = 3, ATCC 27985, read-out: MIC90 Streptococcus uberis (+)

| Structure (SMILES) | MIC50 Acinetobacter baumanni ([1]; Example 2a, n = 3, RUH875) [µM] | MIC90 Acinetobacter baumanni ([1]; Example 2a, n = 3, RUH875) [µM] | MIC50 Klebsiella pneumoniae [2] [µM] | MIC90 Klebsiella pneumoniae [2] [µM] | MIC50 Streptococcus Suis Type 2 (+) [3, 7] [µM] | MIC90 Streptococcus Suis Type 2 (+) [3, 7] [µM] | MIC50 Streptococcus uberis (+) ([4]; Example 2a, n = 3, ATCC 27985) [µM] | MIC90 Streptococcus uberis (+) ([4]; Example 2a, n = 3, ATCC 27985) [µM] | S. epidermidis MBIC90 [5] [mM] | P. aeruginosa MBIC90 [6] [mM] | other results |
| --- | --- | --- | --- | --- | --- | --- | --- | --- | --- | --- | --- |
| [O-][S+](Sc1ccc(F)cc1)c1ccc(F)cc1 (stereo not drawn) [Bis (4-fluorophenyl) thiosulfinate, Bis(4-fluorophenyl) thiosulfinate] | 2000 (≈ 541 µg/mL) | >4000 | 2500 (≈ 676 µg/mL) | >4000 | 380 (≈ 103 µg/mL) | 830 (≈ 224 µg/mL) | 420 (≈ 114 µg/mL) | 1500 (≈ 405 µg/mL) | – | – | – |
| CCCSS(=O)(=O)CCC [Di-n-propyl thiosulfonate, reference compound] | – | – | – | – | – | – | – | – | 2 | 0.5 | – |
| Clc1ccc(SSc2ccc(Cl)cc2)cc1 [Bis (4-chlorophenyl) disulfide, Bis(4-chlorophenyl) disulfide] | – | – | – | – | – | – | – | – | >4 | >4 | MIC90 [1, 8]: > 1000 µM; MIC50 ([1]; Example 2a, n = 3, RUH875): > 4000 µM; MIC90 [1, 9]: > 4000 µM; MIC50 [2]: > 4000 µM; MIC90 [2]: > 4000 µM; MIC50 [3, 7]: 60 µM (≈ 17.2 µg/mL); MIC90 [3, 10]: 50 µM (≈ 14.4 µg/mL); MIC90 ([3]; Example 2b, FIG. 1, no MIC90 detected in the tested range, read-out: Average MIC90 S. suis (Ss)): > 1000 µM; MIC50 ([4]; Example 2a, n = 3, ATCC 27985): 20 µM (≈ 5.74 µg/mL); MIC90 [4, 11]: 50 µM (≈ 14.4 µg/mL); MIC90 ([4]; Example 2b, FIG. 1, no MIC90 detected in the tested range, read-out: Average MIC90 S. uberis (Su)): > 1000 µM |
| O=S(=O)(Sc1ccc(Cl)cc1)c1ccc(Cl)cc1 [Bis (4-chlorophenyl) thiosulfonate, Bis(4-chlorophenyl) thiosulfonate] | >1000 | >1000 | >1000 | >1000 | 130 | 370 | 60 | 500 | – | – | – |
| Fc1ccc(SSc2ccc(F)cc2)cc1 [Bis (4-fluorophenyl) disulfide, Bis(4-fluorophenyl) disulfide] | – | – | – | – | – | – | – | – | – | – | MIC90 [1, 8]: > 4000 µM; MIC50 ([1]; Example 2a, n = 3, RUH875): 3000 µM (≈ 763 µg/mL); MIC90 [1, 9]: > 4000 µM; Average MIC90 K. pneumoniae (Kp) ([2]; Example 2b, FIG. 1, no MIC90 detected in the tested range): above 4000 μM; MIC50 [2]: > 4000 µM; MIC90 [2]: > 4000 µM; MIC50 [3, 7]: 380 µM (≈ 96.6 µg/mL); MIC90 [3, 10]: 1670 µM (≈ 425 µg/mL); MIC50 ([4]; Example 2a, n = 3, ATCC 27985): 210 µM (≈ 53.4 µg/mL); MIC90 [4, 11]: 630 µM (≈ 160 µg/mL) |
| O=S(=O)(Sc1ccc(F)cc1)c1ccc(F)cc1 [Bis (4-fluorophenyl) thiosulfonate, Bis(4-fluorophenyl) thiosulfonate] | 2830 | >4000 | >4000 | >4000 | 750 | 880 | 670 | 1330 | – | – | – |
| CCCSSCCC [Di-n-propyl disulfide, reference compound] | – | – | – | – | – | – | – | – | 4 | >4 | – |
